For 18 molecules, GI50 and TGI results are on record in PubChem BioAssay (NCI).

Common to all, as to experiment: NCI-60 cell line screen, 48 h
Assay [1] has as its system A498 renal.
Assay [2] deals with A549 NSCLC.
Assay [3] relates to HCC-2998 colon.
For assay [4], the system named is NCI-H226 lung.
The test system of assay [5] is NCI-H23 lung.
Assay [6] has as its system NCI-H522 lung.
Assay [7] relates to OVCAR-4 ovarian.
Assay [8] relates to OVCAR-8 ovarian.
Assay [9] concerns U251 CNS.
For assay [10], the system named is UACC-62 melanoma.

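Step 1: Grow cells in 96-well plates. Step 2: Expose to compound for 48 hours at 5 concentrations. Step 3: Interpolate endpoints linearly; if unreached, use highest concentration. The concentration for 50% growth inhibition is given as GI50. The concentration for full growth arrest is given as TGI.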

On to `CC(C)(C)c1cc2c(OP(c3ccccc3)c3ccccc3)c(c1)Cc1cc(C(C)(C)C)cc(c1OP(c1ccccc1)c1ccccc1)Cc1cc(C(C)(C)C)cc(c1OP(c1ccccc1)c1ccccc1)Cc1cc(C(C)(C)C)cc(c1OP(c1ccccc1)c1ccccc1)C2`, for which the GI50 in assay [1] is over 50 µM; in assay [2], over 50 µM; in [3] it was over 50 µM; in assay [4] it was over 50 µM; in assay [5], over 50 µM; in assay [6], 44.6 µM. Further, the GI50 was 22 µM in assay [7], over 50 µM in assay [8], over 50 µM in [9] and over 50 µM in [10]. Besides, the TGI in [1], in assay [2], in [3], in [4], in [5] and in assay [6] was over 50 µM each time. The TGI in assay [7], in [8], in assay [9] and in assay [10] was over 50 µM in each case.
Consider `COc1ccc2c3c([nH]c2c1[N+](=O)[O-])C(C)N(C(=O)/C=C/c1ccccc1)CC3` (stereo not given), for which the TGI in assay [1] is 8.31 µM; in [2], 29.2 µM; in assay [3], over 100 µM; in assay [4] it was 41.3 µM; in [5], over 100 µM; in [6], over 100 µM. For the same molecule, the TGI was over 100 µM in assay [7], over 100 µM in assay [8], over 100 µM in [9] and 9.06 µM in assay [10].
Take `[O-]c1c(-c2ccccc2)[se]c(-c2ccccc2)[n+]1-c1ccccc1`: the TGI amounted to 26.7 µM in assay [1]; 35.9 µM in assay [2]; 19.3 µM in assay [3]; 9.11 µM in assay [4]; 29.7 µM in assay [5]; 8.42 µM in assay [6]. Besides, the values for the TGI in assay [7], in [8] and in [10] were 5.95 µM, 13.7 µM and 27.5 µM, respectively.
`COc1ccc(-c2ccc(=O)oc2-c2cc(OC)c(OC)c(OC)c2)cc1O`: the GI50 in assay [1] is 0.0315 µM; in assay [2], 0.0595 µM; in [3], 0.0379 µM; in assay [4], 0.199 µM; in [5] it was 0.0689 µM; in [6], 0.0124 µM. Besides, the GI50 in assay [7] is 0.283 µM; in assay [8], 0.0498 µM; in [9], 0.0286 µM; in assay [10], under 0.0402 µM. Further, the TGI is over 77.6 µM in assay [1]; over 100 µM in assay [2]; 0.426 µM in [3]; over 100 µM in assay [4]; over 100 µM in assay [5]; 0.0944 µM in assay [6]. For the same molecule, the TGI in assay [7], in [8], in assay [9] and in assay [10] was over 100 µM each time.
Regarding `COc1cccc(NC(=O)c2ccc(C(F)(F)F)nc2Nc2ccc(Cl)cc2C)c1`, the GI50 in assay [1] is 1.65 µM; in [2], 10.6 µM; in assay [3], 2.9 µM; in [4], 14.7 µM; in assay [5] it was 6.45 µM; in assay [6] it was 1.28 µM. Moreover, the GI50 was 14.9 µM in [7], 11.8 µM in [8], 11.9 µM in [9] and 14.2 µM in assay [10]. The TGI stood at 11.9 µM in assay [1]; 22.4 µM in assay [2]; 18.7 µM in [3]; 34.8 µM in assay [4]; 20 µM in [5]; 7.18 µM in assay [6]. For the same molecule, the TGI in [7] turned out to be 28.6 µM; in assay [8], 24.1 µM; in assay [9] it was 24.2 µM; in [10] it was 27.2 µM.
Take `O=S(O)CCCCSSCCCCS(=O)(O)=S`: the TGI is over 100 µM in assay [1]; over 100 µM in assay [2]; over 100 µM in [3]; over 100 µM in assay [5]; 65.6 µM in [6]; 79 µM in assay [7]. Also, the TGI in assay [8] is over 100 µM; in [9], over 100 µM; in assay [10] it was 70.1 µM.
As to `CCCN(CCC)c1ccc(C=O)c(OC)c1`, the GI50 in assay [1] was 1.37 µM; in assay [2], 28.3 µM; in assay [3], 24.9 µM; in assay [4], 28.5 µM; in [5], 22.2 µM; in assay [6], 18.1 µM. Further, the GI50 in [7] is 19.4 µM; in assay [8], 27.5 µM; in assay [9] it was 28.1 µM; in [10], 16.3 µM. Also, the TGI in [1] was 7.79 µM; in assay [2], over 100 µM; in assay [3] it was over 100 µM; in assay [4], over 100 µM; in assay [5], over 100 µM; in [6], 67.3 µM. Moreover, the TGI in assay [7] is 91.7 µM; in [8], over 100 µM; in [9], over 100 µM; in [10] it was 55.4 µM.
For the molecule `COc1cc(/C=C\c2cc(/C=C\c3ccc(O)c(OC)c3)n(C(=O)Nc3ccc(C(F)(F)F)cc3)n2)ccc1O`, the GI50 in assay [1] was 5.81 µM; in assay [2] it was 4.11 µM; in assay [3], 2.04 µM; in assay [4], 7.29 µM; in [5] it was 2.13 µM; in [6], 1.78 µM. In addition, the GI50 in [7] was 3.51 µM; in assay [8], 3.33 µM; in assay [9] it was 2.49 µM; in assay [10], 2.02 µM. Also, the TGI in assay [1] is 20.6 µM; in assay [2] it was over 100 µM; in [3], 3.82 µM; in [4] it was 27.6 µM; in [5], 6.48 µM; in [6] it was 4.65 µM. Moreover, the TGI is 52.7 µM in assay [7], over 100 µM in [8], 6.86 µM in [9] and 4.76 µM in assay [10].
With `O=C1c2ccccc2C(=O)c2c1c(NCCNCCO)c1cc[nH]c1c2NCCNCCO`, the GI50 in assay [1] is 8.09 µM; in [2] it was 5.46 µM; in assay [3] it was 3.18 µM; in assay [4], 1.78 µM; in assay [5], 7.9 µM; in assay [6], 2.32 µM. In addition, the GI50 is 14.2 µM in [7], 2.42 µM in assay [8], 0.739 µM in assay [9] and 1.48 µM in [10]. Besides, the TGI in assay [1] was 32.9 µM; in assay [2], 27.2 µM; in assay [3] it was 17.2 µM; in assay [4] it was 13.5 µM; in assay [5], over 27.9 µM; in assay [6] it was over 35.8 µM. The TGI in assay [7] was found to be 45.2 µM; in assay [8], 40.5 µM; in [9] it was 19.7 µM.
As for `CC(=O)OC1CC(C)c2c1ncnc2N1CCN(C(=O)OC(C)(C)C)CC1` (stereo not given), the GI50 was 37.8 µM in assay [1]; 44.2 µM in [2]; 69.6 µM in assay [3]; 63.9 µM in assay [4]; 58.9 µM in assay [5]; 22.6 µM in [6]. Besides, the figures for the GI50 in assay [7], in assay [8] and in assay [10] were 63.6 µM, 54.3 µM and 46.4 µM, respectively. The TGI in assay [1] is over 100 µM; in assay [2] it was over 100 µM; in assay [3] it was over 100 µM; in assay [4] it was over 100 µM; in assay [5], over 100 µM; in [6], 47.2 µM. Besides, the TGI in assay [7], in assay [8] and in [10] was over 100 µM throughout.
On to `CC(=O)C1C(=O)C(=O)N(c2ccc(Cl)cc2C)C1=O` (stereo not given), for which the TGI in assay [1], in assay [2], in [3], in assay [5], in assay [6] and in assay [7] was over 100 µM throughout. Moreover, the TGI in assay [8], in assay [9] and in assay [10] was over 100 µM each time.
As to `NC(CCc1nc(-c2ccccc2)cs1)C(=O)O` (stereo not given), the TGI in [1], in [2], in [3], in assay [4], in [5] and in [6] was over 100 µM each time. The TGI in assay [8], in [9] and in assay [10] was over 100 µM throughout.
Turning to `CC(=O)[CH-]C(=O)c1ccccc1.CC(=O)[CH-]C(=O)c1ccccc1.[O-]c1ccc(O)cc1.[O-]c1ccc(O)cc1.[Ti+4]`, the GI50 was 18.4 µM in assay [1]; 23.5 µM in [2]; 16.1 µM in assay [3]; 15 µM in assay [4]; 1.97 µM in [6]; 18.2 µM in assay [7]. For the same molecule, the GI50 is 13.5 µM in assay [8], 11.1 µM in [9] and 16.2 µM in [10]. The TGI in [1] was 37.3 µM; in assay [2] it was over 100 µM; in assay [3], 33.6 µM; in assay [4], 34.6 µM; in [6], 4.37 µM; in assay [7] it was 32.3 µM. Besides, the TGI worked out at 31.5 µM in assay [8], 24 µM in assay [9] and 31.3 µM in [10].
Consider `COc1cccc2c1C(=O)c1c(O)c3c(c(O)c1C2=O)C[C@@](O)(C(=O)COC(=O)c1cccnc1)C[C@@H]3OC1CC(N)C(O)C(C)O1` (stereo not given in full), for which the GI50 in assay [1] was 0.113 µM; in [2], 0.0774 µM; in assay [3] it was 0.454 µM; in [5], 0.178 µM; in assay [6] it was 0.0574 µM; in assay [7], 0.28 µM. Also, the GI50 in [8] was 0.183 µM; in assay [9] it was 0.0665 µM; in [10], 0.103 µM. In addition, the TGI in [1] came to 0.334 µM; in assay [2], 0.533 µM; in [3] it was 3.5 µM; in assay [5], 1.02 µM; in assay [6], 0.217 µM; in assay [7], 3.48 µM. The TGI in assay [8] came to 4.85 µM; in assay [9], 0.592 µM; in assay [10], 0.268 µM.
Regarding `C=C(C)[C@@H]1CC[C@]2(C)[C@H](CC=C3[C@@H]4CC(C)(C)CC[C@]4(C(=O)OC)CC[C@]32C)[C@@]1(C)CC/C(N)=N/O`, the GI50 in assay [1] is 2.05 µM; in assay [2] it was 2.15 µM; in [3], 1.86 µM; in assay [5] it was 2.84 µM; in [6] it was 1.58 µM; in assay [7], 2.16 µM. In addition, the GI50 in [8] was 2.27 µM; in assay [9] it was 1.81 µM; in [10], 1.52 µM. Moreover, the TGI in [1] was 4.48 µM; in [2], 7.75 µM; in assay [3] it was 3.67 µM; in assay [5] it was 10.1 µM; in assay [6], 4.12 µM; in assay [7], 7.23 µM. The TGI in [8] is 6.29 µM; in [9], 3.69 µM; in assay [10] it was 3.11 µM.
With `O=c1cc(-c2ccccc2)oc2cc(OCc3cn(Cc4ccc(F)cc4)nn3)cc(O)c12`, the GI50 in assay [1] is 42 µM; in assay [2] it was 19.6 µM; in assay [3], over 100 µM; in [4] it was 3.51 µM; in assay [5] it was 7.7 µM; in assay [6] it was 6.6 µM. The GI50 in assay [8] was 3.76 µM; in [9], 13.9 µM. In addition, the TGI in assay [1], in [2], in [3], in [4], in assay [5] and in assay [6] was over 100 µM in each case. Also, the TGI in assay [8] and in assay [9] was over 100 µM in each case.
Regarding `CC(C)NCCCNC1=C(Cl)C(=O)c2ccccc2C1=O`, the GI50 is 12.2 µM in [1]; 11.2 µM in assay [2]; 2.14 µM in assay [3]; 12.8 µM in assay [4]; 1.88 µM in [5]; 8.69 µM in [6]. For the same molecule, the GI50 was 2.13 µM in assay [8], 2.7 µM in assay [9] and 2.1 µM in assay [10]. Also, the TGI in assay [1] came to 25.1 µM; in [2], 33.5 µM; in [3] it was 4.49 µM; in [4] it was 27.6 µM; in assay [5], 4.56 µM; in [6] it was 21.8 µM. For the same molecule, the TGI in assay [8] is 5.1 µM; in [9], 6.82 µM; in assay [10], 4.91 µM.
Consider `CC[O+]=c1cccc2ssnc1-2`, for which the TGI is over 100 µM in [1]; over 100 µM in assay [2]; over 100 µM in [3]; over 100 µM in assay [4]; 82.6 µM in assay [6]; over 100 µM in assay [7]. For the same molecule, the TGI in assay [8], in assay [9] and in [10] was over 100 µM in each case.
